Consider one molecule from patent publication US10556927B2 (priority 2014, dated 2020).

The subject of the test is HVA calcium channel currents in DRG neuronal cells. The class given is cell-based, rat.

On to `COC(=O)C1=C(C)NC(C)=C(C(=O)OC)C1c1ccccc1[N+](=O)[O-]` [Nifedipine], for which the current after loading is −734.31 pA and the current before loading is listed as −1471.35 pA. The inhibition rate (10 µM) is 50.09%.
